# Experimental data published in patent publication US4312866A, “Use of rifamycin SV and its related salts in the treatment of rheumatoid arthritis, and related formulations suited for the purpose” (priority 1979, dated 1982).
# “Also recorded” adds a separate entry of the source. Where a name gives a salt, the structure may show the parent alone.
# Experiments:
# [1] = clinical; conditions: in vivo
# Procedure: (§1) The rifamycin levels, present in the biological fluids of treated patients, were assayed by high pressure liquid chromatography (HPLC), a method more reliable and reproducible than the ultraviolet or microbiological method.
# (§2) The synovial fluid samples were directly injected into the chromatograph after precipitation of the proteins with acetonitrile on the other hand, the serum samples had to be previously extracted with ethyl acetate at an acid pH.
# (§3) A Hewlett Packard chromatograph is used, model 104 B, fitted with a fixed wave length detector (254 nm); RP 18 (10 mc) column, 25-cm length, […].
# (§4) The following eluent is used: (A) an 80:20 mixture of 0.01 M phosphate buffer at pH 7 and acetonitrile; (B) acetonitrile. The gradient shifts from the 10 percent of B to the 70 percent of B within 15 minutes; the flow is 1.6 ml/minute.
# (§5) The temperature of the oven is 35° C.; that of the eluent A is 60 percent and the one of the eluent B 40 percent.
# (§6) Rifamycin SV and its oxidized form, ie rifamycin S, are used as standard.
# In order to establish the standard lines in the synovial fluid, 500 mg of each single compound are dissolved in one liter exactly of a 1:1 water-methanol mixture.
# (§7) The two absorption lines are made up injecting 5 mcl, 10 mcl and 15 mcl of said solutions into the chromatograph.
# Determination of rifamycin SV in the synovial fluid
# This determination is directly carried out on the deproteinized synovial fluid. 200 mcl of sample are introduced into a centrifuge test tube, and added with 2 ml of acetonitrile.
# The resulting solution is stirred, and allowed to decant; 20 mcl of supernatant fluid are thereafter injected into the chromatograph. The samples are analyzed immediately in order to prevent the oxidation of rifamycin SV into rifamycin S.
# (§8) The data are expressed as mcg/ml.
# [2] = tested on: persistent effusions in one or both knees
# Procedure: In a second clinical experimental course, 75 patients, presenting with persistent effusions in one or both knees were given 500 mg of rifamycin SV (in the form of a L-arginine salt) every seven days, still by intra-articular injection.
# [3] = tested on: rheumatoid synovitis; assay: Clinical trials (open and double-blind) in rheumatoid synovitis; type: in vivo, patients
# Procedure: The effects of intra-articular injections of rifamycin SV solutions in rheumatoid synovitis were assessed in two clinical trials, one carried out according to an open technique and the other one according to a double-blind experimental design. A total of 35 patients was treated, with an intra-articular injection of 200-500 mg weekly, for a maximum of 10 weeks. The patients were followed up for three years. The following laboratory diagnostic tests were made weekly on the synovial fluids: white blood cell differential count, RA test, Waaler-Rose test, latex test, immunoglobulins, T and B lymphocytes, C3 and C4 levels, glucose, acid phosphatase.
# Bioptic examinations were carried out both before and after various months (1-18) after the start of the treatment.
# [4] = tested on: rheumatoid arthritis; assay: Intra-articular injections in rheumatoid arthritis (general statement); type: in vivo; conditions: rheumatoid arthritis patients
# [5] = tested on: cultures of synovial membrane fragments; assay: Inhibiting activity on cultures of synovial membrane fragments; type: cell-based; conditions: needle biopsy, patients with suspected rheumatoid arthritis
# Text: (§9) Two of the 75 patients had to stop the treatment because of the above mentioned untoward side effect.
# [6] = Comparison of synovial fluid rifamycin levels, sodium salt vs arginine salt (Table 2); type: in vivo, patients; conditions: equivalent to 500 mg rifamycin SV; for concentration at 5 min / concentration at 1 h / concentration at 2 h / concentration at 4 h / concentration at 8 h: human, synovial fluid, mean of eight determinations
# [7] = tested on: joint sites other than the knee (wrist, hand's metacarpophalangeal and interphalangeal joints, tibiotarsal joints, etc); assay: Infiltrations into joint sites other than the knee; type: in vivo, patients; conditions: approximately 300 joints
# Text: as §9
# [8] = Solubility of the salts; type: physicochemical
# [9] = tested on: rabbit's spinal sac; assay: Local tolerability after injection into the rabbit's spinal sac; type: in vivo; conditions: 60-mg injection once daily for three consecutive days, versus commercial solutions of rifamycin SV
# [10] = pH of aqueous solutions of the salts; type: physicochemical
# [11] = Rifamycin levels in monoarthritic guinea-pig after intra-articular administration; type: in vivo; conditions: monoarthritic guinea-pig (gamma-globulin arthritis)
# Text: The observation that in the monoarthritic guinea-pig (gamma-globulin arthritis) rifamycin arginine salt levels, 10 times higher than in the case of rifamycin sodium salt, can be observed following an intra-articular administration of either rifamycin sodium salt or arginine salt, proves in full agreement with the above mentioned datum.
# [12] = in vivo
# Procedure: as §1, §2, §3, §4, §5, §6, §7
# The previous solutions are ten-fold diluted in the case of sera standard lines; the above mentioned operations are thereafter repeated.
# Determination of Rifamycin in the Serum […]
# as §8
# [13] = Stability of solutions and lyophilyzed salts; type: physicochemical; conditions: dry state
# [14] = synovial fluid, end of the treatment
compound,measurement,setting,value
COC1C=COC2(C)Oc3c(C)c(O)c4c(O)c(cc(O)c4c3C2=O)NC(=O)C(C)=CC=CC(C)C(O)C(C)C(O)C(C)C(OC(C)=O)C1C (centres unmarked) [rifamycin SV],diffusion of rifamycin SV injected into the joint,[1],scarce diffusion
same,rifamycin species present in the synovial fluid,[1],Only rifamycin SV is present in the synovial fluid
same,initial local pain,"[2]; human, in vivo",majority of the patients
same,patients who had to stop the treatment because of side effect,"[2]; human, in vivo",Two
same,patients with local retarded painful reaction,"[2]; human, in vivo",28 patients
same,patients with reappearance of exudate,"[3]; 35 patients, followed up for three years",two
same,disappearance of exudate,"[3]; 200-500 mg weekly intra-articular, maximum 10 weeks",completely disappeared after the third and within the tenth instillation
same,histological variations of the knees,[3]; biopsies before and 1-18 months after start of treatment,reduction of synovial cell infiltrates; also recorded: increase of newly-formed connective tissue; also recorded: surrounding areas with a residual hyperplastic synovia; also recorded: depositions of a new partially organized fibrin
same,immunological parameters,[3]; end of the treatment,No variations
same,RA cells,[3]; [14],significant drop
same,polymorphocyte percentage,[3]; [14],significant drop
same,total leukocytes,[3]; [14],significant drop
same,resolution of the pathologic condition,[4],rapid resolution of the pathologic condition as well as to the patient's complete cure
same,inhibiting activity on cultures of synovial membrane fragments,[5],inhibiting activity of rifamycin SV was demonstrated
"COC1C=COC2(C)Oc3c(C)c(O)c4c(O)c(cc(O)c4c3C2=O)NC(=O)C(C)=CC=CC(C)C(O)C(C)C(O)C(C)C(OC(C)=O)C1C [L-arginine salt of rifamycin SV, rifamycin SV salt with arginine]",synovial fluid levels compared with sodium salt,[6]; intra-articular,marked superiority
same,concentration at 5 min,[6],7160 ± 2100 µg/mL
same,concentration at 1 h,[6],3850 ± 800 µg/mL
same,concentration at 2 h,[6],1730 ± 1000 µg/mL
same,concentration at 4 h,[6],750 ± 300 µg/mL
same,concentration at 8 h,[6],173 ± 100 µg/mL
same,concentration at 0.25 h,[1]; human,4930 ± 550 µg/mL
same,analgesic and anti-inflammatory activity,[7],potent analgesic and anti-inflammatory activity
same,joint function,[7],overall improvement of joint function
same,morning stiffness,[7],"marked reduction, and quite often in a complete subsidence"
same,patients with complete subsidence of effusions and marked clinical improvement,"[2]; 500 mg rifamycin SV every seven days intra-articular, of 75 patients",seventy-two
same,patients with effusional relapse,[2]; 1-6 months after the start of the treatment,3 patients
same,patients not responding to 12 infiltrations,[2]; 12 infiltrations,one
same,synovial fluid leukocytes,[2]; P<0.001,significant decrease
same,C3 and C4 complemental fractions in synovial fluid,[2]; P<0.005,increase
same,relation of number of infiltrations with activity of the local synovitis,[2]; P<0.05,strictly related
same,patients requiring 1-3 infiltrations to induce effusion subsidence,[2]; out of 72,12 patients
same,patients requiring 4-6 infiltrations to induce effusion subsidence,[2]; out of 72,33 patients
same,patients requiring 7-12 infiltrations to induce effusion subsidence,[2]; out of 72,27 patients
same,solubility in acetone,[8]; listed as arginine salt,highly soluble
same,solubility in chloroform,[8]; chloroform,sparingly soluble
same,solubility in ethyl acetate,[8]; listed as arginine salt,sparingly soluble
same,solubility in methanol,[8]; listed as arginine salt,highly soluble
same,solubility in water,[8]; listed as arginine salt,highly soluble
same,solubility in water,[8]; listed as arginine salt of rifamycin SV,optimal water solubility properties
same,local tolerability,[9],optimal and definitely better than that observed in the case of commercial solutions
same,pH of 10 percent aqueous solution,[10]; 10 percent aqueous solution,6.7
same,rifamycin arginine salt levels vs rifamycin sodium salt,[11],10 times higher
"COC1C=COC2(C)Oc3c(C)c(O)c4c(O)c(cc(O)c4c3C2=O)NC(=O)C(C)=CC=CC(C)C(O)C(C)C(O)C(C)C(OC(C)=O)C1C (centres unmarked) [histidine salt, rifamycin SV salt with histidine]",solubility in acetone,[8],good
same,solubility in benzene,[8]; benzene,practically nil
same,solubility in ethanol,[8]; ethanol,good
same,solubility in ether,[8]; ether,practically nil
same,solubility in ethyl acetate,[8],practically nil
same,solubility in isopropanol,[8]; isopropanol,practically nil
same,solubility in methanol,[8],high
same,solubility in water,[8],high
same,pH of 20 percent aqueous solutions,[10]; 20 percent aqueous solutions,6.4-6.7
COC1C=COC2(C)Oc3c(C)c(O)c4c(c3C2=O)C(=O)C=C(NC(=O)C(C)=CC=CC(C)C(O)C(C)C(O)C(C)C(OC(C)=O)C1C)C4=O (centres unmarked) [rifamycin S],rifamycin species present in the serum,[12],serum also contains rifamycin S
"CO[C@H]1/C=C/O[C@@]2(C)Oc3c(C)c(O)c4c(O)c(cc(O)c4c3C2=O)NC(=O)/C(C)=C\C=C\[C@H](C)[C@H](O)[C@@H](C)[C@@H](O)[C@@H](C)[C@H](OC(C)=O)[C@@H]1C [rifamycin SV sodium salt, reference compound]",concentration at 5 min,[6],6700 ± 200 µg/mL
same,concentration at 1 h,[6],1530 ± 490 µg/mL
same,concentration at 2 h,[6],485 ± 180 µg/mL
same,concentration at 4 h,[6],439 ± 180 µg/mL
same,concentration at 8 h,[6],140 ± 67 µg/mL
same,preservation of lyophilyzed salt,[13],can be preserved for years at room temperature
same,solubility in water,[8],scarcely soluble in water
